# Assay results: patent US6908922B2, “Linear cyclic ureas” (Les Laboratoires Servier, priority 1999, dated 2005)
# How the values were obtained:
# Type in all cases: cell-based
# rat aortic rings = experiment: Assessment of aortic production of cGMP stimulated by ACh in the presence of LNA (radioimmunoassay); settings: compound at 10^−7M, 30-minute incubation; ACh 10^−5M 1 minute; LNA 3×10^−6M; isobutylmethylxanthine 10^−5M
# Method: By diffusing to the smooth muscle cells, the NO produced by the endothelial cells activates soluble guanylate cyclase, which brings about an increase in cyclic GMP, which is responsible for relaxation.
# The rat aortic rings are prepared as previously. The effects of 30-minute incubation of compounds of the invention at different concentrations are assessed on the production of cGMP stimulated by ACh (10^−5M-1 minute) in the presence of LNA (3×10^−6M). The said experiments are carried out in the presence of isobutylmethylxanthine (10^−5M) in order to avoid degradation of the cGMP by phosphodiesterases. The rings are frozen in liquid nitrogen and maintained at −80° C. until the assay is carried out. The cGMP content is assessed by radioimmunoassay and expressed in relation to the amount of proteins contained in the tissue (assay by the Bradford method).
# [1] = test system: thoracic aorta rings of a Wistar rat; experiment: Vascular protective effects with respect to endothelial dysfunction caused by an inhibitor of NOS (ACh relaxation of aortic rings in presence of LNA); settings: LNA 3×10^−7M, difference in maximum ACh relaxation with/without product
# Method: Under standard in vitro conditions, relaxation of aortic rings caused by acetylcholine (ACh), which relaxation is entirely dependent on the presence of endothelium, is the reflection of the production of NO (stimulated by ACh), which by diffusing to smooth muscle cells brings about arterial relaxation (Nature, 1980, 288, 373). The compounds of the invention were tested in respect of two models involving two different mechanisms implicated in the endothelial dysfunction observed in pathology: • the first model consists of causing inhibition of the relaxation due to ACh by blocking the enzymatic activity (endothelial NOS) responsible for the production of NO; • the second model consists of causing oxidative stress in vitro using an enzymatic system that generates O2^− (xanthine oxidase—XO and hypoxanthine—Hypo).
# The thoracic aorta of a Wistar rat (325-375 g), anaesthetised by the intraperitoneal route using pentobarbital sodium (30 mg/kg), is removed and dissected into rings having a length of 3 mm. Each ring is suspended from an isometric tension sensor connected to a recording system and the initial tension applied is 2.5 g. The physiological solution used, which is thermostatically maintained at 37° C. and oxygenated (95% O2+5% CO2), comprises (in mM): NaCl 112.0; KCl 5.0; CaCl2 2.5; KH2PO4 1.0; MgSO4 1.2; NaHCO3 25.0; glucose 11.5; Ca-EDTA 0.016.
# After a 90-minute stabilisation period, the preparations are contracted using phenylephrine (PHE 10^−6M) and relaxed by adding 10^−5M of acetylcholine in order to verify the integrity of the endothelial layer. If that is confirmed, the preparations are rinsed and a concentration of the product under test is added to the medium followed by 3×10^−7M of N^G-nitro-L-arginine (LNA). The preparations are again contracted using phenylephrine and, after 30 minutes, the relaxations due to acetylcholine (ACh-10^−8M to 10^−5M) are assessed in the presence of indomethacin (10^−5M).
# The relaxation values are expressed as a percentage relative to the maximum contraction caused by PHE. […]
# [2] = test system: aortic rings of New Zealand rabbits; experiment: Protective vascular effects with respect to endothelial dysfunction caused by a system generating O2^− (XO-Hypo), aortic rings; settings: compound at 3×10^−8M; rabbit aortic rings; XO 3 mU/ml, Hypo 10^−4M
smiles,measurement,setting,value
"O=C(NCCN1CCC(COc2ccccc2)CC1)N1CCc2ccccc21 [Example 35, N-{2-[4-(Phenoxymethyl)-1-piperidyl]ethyl}-1-indolinecarboxamide]",increase in the production of cGMP stimulated by ACh in the presence of LNA,rat aortic rings,28.1%
same,inhibition of the endothelial dysfunction caused by LNA,[1]; compound at 3×10^−8M,26%
same,inhibition of the endothelial dysfunction caused by LNA,[1]; compound at 10^−7M,29%
same,inhibition of the endothelial dysfunction caused by LNA,[1]; compound at 10^−8M,8%
same,inhibition of the endothelial dysfunction caused by the XO-Hypo combination,[2],17%
